{
  "source": "patent US20220354949A1",
  "about": "“NOVEL COMPOUNDS” (XENIOPRO GmbH, priority 2018, published 2022)",
  "system": "Notch signaling (human Notch1 receptor, hNotch1ΔE, CSL luciferase reporter in HeLa cells)",
  "experiment": "Notch reporter assay (dual luciferase, HeLa cells transfected with hNotch1ΔE)",
  "format": "cell-based",
  "settings": "compounds and controls at 10 μM",
  "from_the_text": "The activation level of Notch signaling can be quantified in vitro reliably by measuring the expression levels of Notch specific target genes. This can be accomplished by the quantification of corresponding mRNA or protein of a particular Notch target gene. Alternatively, cells can be genetically modified to carry a luciferase gene as an artificial Notch target gene, which is expressed in dependence of Notch activity. In this setting, Notch signaling levels can be quantified by measuring the luciferase-derived bioluminescence values.\nAn according Notch-reporter assay, i.e. a luciferase-based luminescence readout, was used here to quantify the ability of the claimed compounds to augment Notch signaling in a cellular system. […] After 24 hours of transfection, the transfected cells were carefully detached from the dish using 0.5 mM EDTA in PBS and seeded into 96-well plates suitable for luminescence readouts (CORNING, #3610) at 10′000 cells per well. […] Directly after the lysis, first the Firefly and then the Renilla luciferase values were measured consecutively from the same well with a luminescence reader immediately after applying 15 μL per well each of the corresponding enzyme substrates needed to create the luminescence signals (Promega, Dual-Luciferase® Reporter Assay System, #E1910). […]",
  "data": [
    {"compound": "Oc1ccc(C=Cc2cc(O)cc(O)c2)cc1", "note": "[RES, Resveratrol]", "values": [
      {"measurement": "Activity Range: weighted arithmetic mean (AVEw) of double-normalized Notch-reporter luminescence, relative to DMSO basis level of 1.0", "result": "1.9 ± 0.5"}
    ]}
  ]
}
